Measured values: patent US11590109B2 (priority 2016, dated 2023)

Legend:
[1] = test system: Zika Virus; test: Inhibition of viral replication (CPE) at cellular level, Zika Virus in Vero; settings: for SI (TC50/IC50): Zika Virus in host cell Vero; for IC50: Zika virus, Vero
[2] = test system: RSV (human respiratory syncytial virus); test: Inhibition of viral replication (CPE) at cellular level, RSV in Vero; settings: for SI (TC50/IC50): RSV in host cell Vero; for IC50: human respiratory syncytial virus, Vero
[3] = test system: H3N2 (influenza virus); settings: H3N2 in host cell MDCK
[4] = test system: H1N1 (influenza virus); settings: H1N1 in host cell MDCK
[5] = in vitro; settings: African green monkey
[6] = Determination of TC50 (half toxicity concentration) in RD cells; format: cell-based; settings: human, host cell RD, EV71 table
[7] = in vitro; settings: dog, TC50
[8] = test system: H7N9 (influenza virus); test: microbe, parasite or virus in culture; settings: Influenza A virus, H7N9, MDCK
[9] = test system: H7N9 (influenza virus); settings: H7N9 in host cell MDCK
[10] = test system: EV71 (hand-foot-and-mouth virus); settings: EV71 in host cell RD
[11] = test system: H1N1 (influenza virus); test: microbe, parasite or virus in culture; settings: Influenza A virus, H1N1, MDCK
[12] = test system: Dengue Virus 2 (type 2 dengue virus); test: Inhibition of viral replication (CPE) at cellular level, Dengue Virus 2 in Vero; format: cell-based; settings: Dengue Virus 2 in host cell Vero; for IC50: CPE
Text: Activity Test for Inhibition of Viral Replication at Cellular Level […]
The present inventors tested inhibitory effects of the compound of the present invention on cytopathic effects (CPE) caused by viral infection on mammalian cells.
Half-inhibitory concentration IC50 and half toxic concentration TC50 of the compound against Dengue Virus 2 (type 2 dengue virus) in host cell Vero (African green monkey kidney cell).

[13] = test system: JEV (Japanese encephalitis virus); test: Inhibition of viral replication (CPE) at cellular level, JEV in Vero; settings: for SI (TC50/IC50): JEV in host cell Vero; for IC50: Japanese encephalitis virus, Vero
[14] = test system: EV71 (hand-foot-and-mouth virus); test: microbe, parasite or virus in culture; settings: Enterovirus A
[15] = test system: H3N2 (influenza virus); test: microbe, parasite or virus in culture; settings: Influenza A virus, H3N2, MDCK
[16] = TC50, host cell Vero, Dengue Virus 2 table
[17] = TC50, host cell Vero, RSV table
[18] = TC50, host cell Vero, Zika Virus table

| Compound | SI (TC50/IC50) [1] | IC50 [1] [nM] | SI (TC50/IC50) [2] | IC50 [2] [nM] | SI (TC50/IC50) [3] | SI (TC50/IC50) [4] | CC50 [5, 16] [nM] | CC50 [5, 17] [nM] | CC50 [5, 18] [nM] | CC50 [6] [nM] | CC50 [7] [nM] | IC50 [8] [nM] | SI (TC50/IC50) [9] | SI (TC50/IC50) [10] | IC50 [11] [nM] | SI (TC50/IC50) [12] | IC50 [12] [nM] | SI (TC50/IC50) [13] | IC50 [13] [nM] | IC50 [14] [nM] | other results |
| --- | --- | --- | --- | --- | --- | --- | --- | --- | --- | --- | --- | --- | --- | --- | --- | --- | --- | --- | --- | --- | --- |
| CCN(/N=C/c1ccccc1C(=O)O)c1nc(-c2ccccc2Cl)cs1 [Compound 2, (E)-4-(2-chlorophenyl)-2-[1-ethyl-2-(2-carboxybenzylidene)hydrazino]thiazole] | 53 | 450 | 4 | 7690 | 15 | 8 | 24000 | 29000 | 24000 | 1000 | 23000 | 5730 | 8 | 4.3 | 3690 | 68.6 | 350 | 45.7 | 350 | 230 | CC50 [5]: 16000 nM; IC50 [15]: 1500 nM |
| CN(/N=C/c1ccc(C(F)(F)F)cc1C(=O)O)c1nc(-c2ccccc2Cl)cs1 [Compound 8, (E)-4-(2-chlorophenyl)-2-[1-methyl-2-(4-trifluoromethyl-2-carboxybenzylidene)hydrazino]thiazole] | 158 | 120 | 5.5 | 5630 | 233 | 49 | 19000 | 31000 | 19000 | 1000 | 49000 | 590 | 66 | 11 | 630 | 211 | 90 | 170 | 100 | 90 | CC50 [5]: 17000 nM; IC50 [15]: 210 nM |
| Cc1sc(N(C)/N=C/c2ccccc2C(=O)O)nc1-c1ccccc1 [Compound 12, (E)-5-methyl-4-phenyl-2-[1-methyl-2-(2-carboxybenzylidene)hydrazino]thiazole] | 56.5 | 230 | 11.7 | 1790 | 146 | 77 | 17000 | 21000 | 13000 | 1000 | 51000 | 1090 | 54 | 4 | 790 | 65 | 260 | 100 | 130 | 250 | IC50 [15]: 350 nM |
| O=C(O)c1cc(C(F)(F)F)ccc1/C=N/Nc1nc(-c2ccccc2Cl)cs1 [Compound 8-1] | 264 | 250 | 14 | 8890 | 456 | 138 | 65000 | 123000 | 66000 | 2000 | 114000 | 860 | 117 | 10.5 | 890 | 325 | 200 | 156 | 230 | 190 | CC50 [5]: 36000 nM; IC50 [15]: 250 nM |
| O=C(O)c1cc(F)c(F)cc1/C=N/Nc1nc(-c2ccccc2Cl)cs1 [Compound 23-1] | 262 | 290 | 19 | 5670 | 477 | 300 | 78000 | 101000 | 76000 | 2000 | 124000 | 670 | 152 | 5.4 | 670 | 200 | 390 | 124 | 290 | 370 | CC50 [5]: 36000 nM; IC50 [15]: 260 nM |
